Measurements as given in US11590119B2, “(S)-2-(1-(5-(cyclohexylcarbamoyl)-6-(propylthio)pyridin-2-yl)piperidin-3-yl)acetic acid for use in medicine” (University of Leeds, priority 2019, dated 2023).

Assays:
HUVEC tubule formation = test: HUVEC tubule formation, in vitro model of angiogenesis; assay type: cell-based, human; settings: IL-1β 10 ng/ml; cortisone 200 nM; AZD4017 1 μM with cortisone; biological n=1
11β-HSD1 [1] = target: T1, 11β-HSD1 (Homo sapiens, UniProt P28845); test: 11β-HSD1 activity (conversion of cortisone to cortisol) in primary human dermal fibroblasts; assay type: cell-based; parameters: from tissue; host or cells: adipose tissue of abdominally obese healthy adult male volunteers
Experimental: FIG. 5: 11β-HSD1 activity in primary human dermal fibroblasts.
In order to investigate the effects, prevalence and relevance of 11β-HSD1 in human skin and diabetic wound healing the effects of the proinflammatory cytokine, IL-1β on human dermal fibroblasts (HDFs) in culture was assessed in the preclinical setting. […] In these experiments RU486 (mifepristone) was used as a competitive cortisol antagonist.

11β-HSD = settings: mice, topical treatment, oral corticosterone; cited from earlier work
11β-HSD1 [2] = target: T1, 11β-HSD1; settings: cited from earlier work
epidermis = test: Phase II trial in T2DM: epidermal thickness by OCT; assay type: in vivo, human; settings: day 35, 400 mg twice daily
Experimental: FIG. 14: Epidermal thickness (μm) in the placebo (PBO) and AZD4017 (AZD) treated arms after 35 days.
As noted above, glucocorticoid therapy is known to cause skin thinning and dispose patients to the development of chronic wounds. Epidermal thickness was measured by OCT at Visits 1 (day 0) and 6 (day 35, i.e. after 35 days of treatment with 400 mg AZD4017, twice daily). Results from these measurements are presented alongside the confidence interval in the measurements at day 35.

11β-HSD1 [3] = target: T1, 11β-HSD1; settings: abdominally obese healthy adult male volunteers, daily oral dosing
Experimental: In more detail, a Phase I study using AZD4017 in abdominally obese healthy adult male volunteers involved an assessment of 11β-HSD1 inhibition in human adipose tissue as a function of time following daily oral dosing of the inhibitor (11β-HSD1 activity was assessed by an assay measuring the conversion of cortisone to cortisol in adipose tissue samples). […] Tachyphylaxis was also investigated with an additional AstraZeneca 11β-HSD1 inhibitor, AZD8329, from a different chemical series (see Morentin Gutierrez et al, Br J Pharmacol […], 172, 4806-16).
FIG. 1: Conversion of ^3H cortisone [20 nM] to ^3H cortisol (%/100 mg adipose tissue) after repeated dosing of AZD4017.

skin wounds [4] = test: Phase II trial in T2DM: deep learning segmentation of OCT wound images; assay type: in vivo, human; settings: day 30, 2 days after wounding at day 28, p<0.05
Source text: FIG. 17: 2D OCT image of wound segmented into compartments. i) void; ii) intact tissue; iii) wound collagen; iv) wound with sponginess morphology; v) neoepidermis; vi) clot & vii) blood (in liquid form).
FIG. 18: Figure illustrating the improved amount of A) neoepidermis and B) clot volume two days after wounding and after 30 days of treatment with AZD4017 (AZD) and placebo (PBO).
To further understand the effects of AZD4017 in the wound healing process a deep learning based image processing method was developed for recognising different sub-tissue components from optical coherence tomography (OCT) images. The method was based on a u-net convolutional neural network (see Ronneberger O., Fischer P., Brox T. (2015) U-Net: Convolutional Networks for Biomedical Image Segmentation. In: Navab N., Hornegger J., Wells W., Frangi A. (eds) Medical Image Computing and Computer-Assisted Intervention—MICCAI 2015. MICCAI 2015. Lecture Notes in Computer Science, vol 9351. Springer, Cham. https://doi.org/10.1007/978-3-319-24574-4_28). […]
Further morphological image processing was then performed to the labelled image as post processing processes to show meaningful continuous regions of sub-tissue components. As a result, the area (mm^2) of each sub-tissue components could be calculated. In addition the volume (mm^3) of each sub-tissue components across 120 slices of tissues were also determined. […]

stratum corneum = test: Phase II trial in T2DM: N tapes, tape stripping to a pre-specified TEWL; assay type: in vivo, human; settings: after 4 weeks treatment
Experimental: FIG. 16: The number of tapes (N tapes) required to achieve the equivalent amount of barrier disruption in the placebo (PBO) and AZD4017 (AZD) treated arms at day 28. Confidence intervals are presented to the right.
A further way in which the skin quality of patients treated with AZD4017 was evaluated involved stripping of the skin with adhesive patches to achieve a consistent damage level as established by transepidermal water loss (TEWL), a measure of the permeability of the skin barrier.
In more detail, evaporation of water from the skin occurs as part of normal skin metabolism. As barrier function is disrupted, water loss increases. The Tewameter® TM 300 probe (commercially available from Courage and Khazaka Electronic GmbH, 50829 Köln, Germany) measures the density gradient of the water evaporation from the skin by two pairs of sensors (temperature and relative humidity) inside a hollow cylinder. […]
Adhesive patches (D-Squame® tapes, from D-Squame, Clinical and Derm LLC, Dallas, Tex., www.clinicalandderm.com) were used to gently remove the stratum corneum layers to a pre-specified TEWL (trans-epidermal water loss) rate from the lower inner forearm at Visits 1 and 4. […] At day, after 4 weeks treatment, the number of tapes required to induce the same level of damage on the skin as evaluated by this technique was 43% higher in the 11β-HSD1 inhibitor treated cohort than in the placebo arm.

[5] = system: fibroblasts and endothelial cell co-culture; test: Angiogenesis co-culture assay with HDF conditioned media (tube length, branch points); assay type: cell-based, human; settings: conditioned media of HDFs treated with IL-1β+200 nM cortisone+1 μM AZD4017, 7 days in culture
Experimental: In order to further study the effects of AZD4017 on angiogenesis in a quantitative manner, a further related experiment to that described above was performed. In this model in vitro cultured human dermal fibroblasts were treated with a) 10 ng/ml IL-1β, b) IL-1β+100 nM cortisol, c) IL-1β+200 nM cortisone or d) IL-1β+cortisone+1 μM AZD4017 (selective 11β-HSD1 inhibitor).

MMP7 and TGM2 expression = test: Protein profiling (Sciomics) and RNAseq of primary human dermal fibroblasts; assay type: cell-based; settings: HDFs, IL-1β+cortisone+AZD4017, n=3
Source text: Protein profiling (Sciomics) conducted on primary human dermal fibroblasts (HDF) treated with vehicle, IL-1β, IL-1β+cortisone or IL-1β+cortisone+the selective 11β HSD1 inhibitor AZD4017 (n=3, same HDF as for RNAseq experiments) identified a number of proteins regulated by 11β-HSD1. […] The proteins found to be regulated by 11β-HSD1 include MMP7 and TGM2. […] Regulation of MMP7 by GC has to the best of our knowledge not previously been reported (Velasco, J., et al., J Biol Chem, 2011. 286(29): p. 26016-27).

[6] = Phase II trial in T2DM: adverse effects; assay type: in vivo, human; settings: T2DM patients, 400 mg twice daily oral, 35 days
Source text: AD4017 is thus identified for the first time as a safe and effective agent with therapeutic and prophylactic potential for the treatment of wound healing in patient populations susceptible to the development of chronic wounds and the complications associated therewith.

skin wounds [7] = test: Phase II trial in T2DM: wound gap diameter of punch biopsy wounds by OCT; assay type: in vivo, human
Source text: FIG. 13: Wound healing in placebo (PBO) and AZD4017 (AZD) treated cohorts as evidenced by wound gap diameter of wounds inflicted at days 0 and 28 at days 2 and 30, respectively. Confidence intervals for measurements are provided to right.
Both biopsies from visit 1 (day 0) and two biopsies from visit 4 (day 28) were imaged by OCT at Visits 2, 3, 5 and 6 as appropriate. Optical coherence tomography OCT (Greaves, N. S., et al., Br J Dermatol, 2014. 170(4): p. 840-50) has proven a useful tool for the evaluation of wound re-epithelialization. OCT uses light to capture sub-micrometre resolution, three-dimensional images from within biological tissue (e.g. skin). The method is based on low-coherence interferometry, typically employing near-infrared light. The use of relatively long wavelength light allows it to penetrate 1-2 mm into the tissue. In addition to wound diameter, collected images capture information on vascularization.
The procedure takes approximately 2 minutes using a small probe applied to the skin. The procedure is non-invasive and pain-free. Image files (including enrolment number, visit number and date) were stored on the OCT machine until the end of the trial, then transferred to a secure server, compiled, analysed and values for wound diameter entered into the case report form (CRF).
The initial wounds created by puncture at days 0 and 28, respectively, were 3 mm in diameter. Treatment with AZD4017 (400 mg, twice daily oral) was initiated on day 0 and maintained for 35 days.
Thus administration of AZD4017 […] delivered a significant improvement in the rate of wound healing.

11β-HSD1 mRNA expression = 11β-HSD1 mRNA expression in cultured human dermal fibroblasts; assay type: cell-based; settings: HDFs in culture; cortisol 24 h; IL-1β 10 ng/mL; cortisol 100 nM in combination

T1 sequence (P28845 whole entry): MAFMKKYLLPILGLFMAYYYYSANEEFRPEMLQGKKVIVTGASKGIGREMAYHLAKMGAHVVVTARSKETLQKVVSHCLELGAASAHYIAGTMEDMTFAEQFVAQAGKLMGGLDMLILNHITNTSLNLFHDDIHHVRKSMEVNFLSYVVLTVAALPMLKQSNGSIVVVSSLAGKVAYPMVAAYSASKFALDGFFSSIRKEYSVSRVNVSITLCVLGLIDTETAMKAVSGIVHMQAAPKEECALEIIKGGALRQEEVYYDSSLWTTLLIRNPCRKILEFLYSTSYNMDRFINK

Molecule: C[C@]12CCC(=O)C=C1CC[C@@H]1[C@@H]2C(=O)C[C@@]2(C)[C@H]1CC[C@]2(O)C(=O)CO [cortisone, reference compound]
- tubule formation (HUVEC tubule formation): blocked

Molecule: CC1(C)[C@@H](OC(=O)CCC(=O)O)CC[C@]2(C)[C@H]3C(=O)C=C4[C@@H]5C[C@@](C)(C(=O)O)CC[C@]5(C)CC[C@@]4(C)[C@]3(C)CC[C@@H]12 [carbenoxolone, reference compound]
- inhibition of conversion of E to F (11β-HSD1 [1]; 25 μM, 18 h, HDFs pretreated with IL-1β and cortisol): did not significantly inhibit
- effect on delay in wound healing caused by corticosteroid excess (11β-HSD): reverse the delay in wound healing

Molecule: CCCSc1nc(N2CCC[C@@H](CC(=O)O)C2)ccc1C(=O)NC1CCCCC1 [AZD4017, (S)-2-(1-(5-(cyclohexylcarbamoyl)-6-(propylthio)pyridin-2-yl)piperidin-3-yl)acetic acid]
- effect on 11β-HSD1 enzyme activity and production of F (cortisol) (11β-HSD1 [1]; 1 μM, over 18 h, HDFs pretreated with IL-1β and cortisol): completely blocked the enzyme activity
- cortisol levels in the adipose tissues (11β-HSD1 [2]; after 9 days dosing, versus before dosing): higher than those measured before dosing commenced
- inhibition of 11β-HSD1 activity in adipose tissue (11β-HSD1 [2]; after 9 days of treatment, as quoted from Freude): not observed after 9 days of treatment
- inhibition of 11β-HSD1 activity in adipose tissue vs baseline (11β-HSD1 [2]; after single doses, as quoted from Freude): 50%
- epidermal depth greater than the placebo arm (epidermis): 5.58 μm
- tubule formation (HUVEC tubule formation): the same IL-1β stimulated tubule formation as observed in the absence of cortisone
- 11β-HSD1 activity in adipose tissue relative to baseline (11β-HSD1 [3]; day 1): reduced 11β-HSD1 activity relative to baseline
- net 11β-HSD1 activity in adipose tissue post-dose versus baseline level on day 0 (11β-HSD1 [3]; day 9 post dose): still greater than the baseline level on day 0
- volume of clots in the wound site compared to placebo (skin wounds [4]): statistical significant increases
- volume of neoepidermis in the wound site compared to placebo (skin wounds [4]): statistical significant increases
- number of tapes required to induce the same level of damage, higher than in the placebo arm (stratum corneum): 43%
- IL-1β stimulated tube formation (tube length, number of branch points) [5]: decreased the negative effects of cortisone/cortisol
- MMP7 protein and gene expression (MMP7 and TGM2 expression): downregulated MMP7
- TGM2 protein and gene expression (MMP7 and TGM2 expression): stimulate TGM2 protein and gene expression
- adverse effects in the treatment cohort [6]: no significant adverse effects
- mean wound gap diameter (skin wounds [7]; day 2, 3 mm wound inflicted at day 0, 400 mg twice daily oral from day 0): 0.98 mm
- improvement in the extent of healing relative to placebo arm (skin wounds [7]; day 2, wound inflicted at day 0): 35%
- mean wound gap (skin wounds [7]; day 30, 3 mm wound inflicted at day 28, after 4 weeks pretreatment): 0.67 mm
- improvement in the extent of healing relative to placebo arm (skin wounds [7]; day 30, wound inflicted at day 28): 55%

Molecule: C[C@]12CCC(=O)C=C1CC[C@@H]1[C@@H]2[C@@H](O)C[C@@]2(C)[C@H]1CC[C@]2(O)C(=O)CO [cortisol, reference compound]
- increase in 11β-HSD1 mRNA expression (11β-HSD1 mRNA expression): 6 fold

Molecule: IL-1β: interleukin 1β (pro-inflammatory cytokine)
- increase in conversion of cortisone (E) to cortisol (F) relative to untreated HDFs (11β-HSD1 [1]; 24 h IL-1β pretreatment, conversion over 48 h): 6 fold
- increase in 11β-HSD1 mRNA expression (11β-HSD1 mRNA expression): 10 fold
- tubule formation (HUVEC tubule formation): stimulate tubule formation
